The values below come from patent publication US20240374590A1, “COMPOSITIONS AND METHODS FOR TREATING CANCER” (A2A PHARMACEUTICALS, INC., priority 2021, published 2024).

Assay [1] deals with JIMT-1 human breast cancer cell line. As to the kind of experiment: Cell viability assay (SRB) in JIMT-1. The format is cell-based. The conditions noted are these: 72 hours after treatment, read-out: JIMT1 IC50. On the procedure:
(§1) Human colon carcinoma cell line HCT-116 was a kind gift from Igor Ronninson from University of South Caroli, Columbia, USA. Human breast cancer cell line, JIMT-1 was kindly provided by Ali Osmay Güre from Bilkent University, Ankara, Turkey. Cells were cultured in Dulbecco's modified Eagle's medium (Lonza, NJ, USA), supplemented with 10% fetal bovine serum (FBS, Lonza), 1% non-essential amino acid (NEAA), 2 mM L-glutamine (Sigma Aldrich, MO, USA) and 50 U/ml penicillin/streptomycin (P/S). HCT-116 cells were cultured in McCoy's 5A (modified) (Gibco) medium supplemented with FBS, NEAA, L-glutamine and P/S. All cell lines were tested regularly using MycoAlert Mycoplasma Detection Kit (Lonza). The cumulative length of the cells between thawing and use in the experiments was less than 20 passages.
(§2) Newly synthesized molecules were dissolved in 100% DMSO to yield a stock concentration of 10 mM. For cell viability assay, JIMT-1 (3×10^3 cells/well) and HCT-116 (4×10^3), cells were seeded into 96-well plates, and 24 hours after cell seeding inhibitor treatments were performed at different concentrations. Cell viability was measured 72 hours after treatment with Sulforhodamine B (SRB, Sigma Aldrich) assay as recommended by the manufacturer.

The subject of assay [2] is HCT-116 human colon carcinoma cell line. As to the kind of experiment: Cell viability assay (SRB) in HCT-116. Particulars: 72 hours after treatment, read-out: HCT116 IC50. The format is cell-based. On the procedure:
as §1, §2

What is called IC50 is the concentration that gives 50% inhibition. With `COc1ccc(-c2cc(Nc3ccnc(N4CCOCC4C)n3)[nH]n2)c(F)c1` (stereo not shown) [Compound 138, N-(3-(2-fluoro-4-methoxyphenyl)-1H-pyrazol-5-yl)-2-(3-methylmorpholino)pyrimidin-4-amine], the half-inhibitory concentration (IC50) in assay [1] turned out to be 15 nM; in assay [2], 52 nM.
Taken in the same sequence, the figures for `COc1ccc(-c2cc(Nc3ccnc(C4CCOCC4)n3)[nH]n2)c(F)c1` [Compound 318, N-(3-(2-fluoro-4-methoxyphenyl)-1H-pyrazol-5-yl)-2-(tetrahydro-2H-pyran-4-yl)pyrimidin-4-amine] were 319 nM and 293 nM.
The corresponding values for `COc1ccc(-c2cc(Nc3ccnc(N4CCC(C)CC4)n3)[nH]n2)c(F)c1` [Compound 130, N-(3-(2-fluoro-4-methoxyphenyl)-1H-pyrazol-5-yl)-2-(4-methylpiperidin-1-yl)pyrimidin-4-amine] are 18 nM and 7 nM.
`CC1CCCN1c1ncc(F)c(Nc2cc(-c3ccc(OC(F)F)cc3)n[nH]2)n1` (stereo not shown) [Compound 290, N-(3-(4-(difluoromethoxy)phenyl)-1H-pyrazol-5-yl)-5-fluoro-2-(2-methylpyrrolidin-1-yl)pyrimidin-4-amine]: the IC50 in assay [1] amounted to 278 nM; in assay [2], 337 nM.
The corresponding values for `COc1ccc(-c2cc(Nc3ccnc(N4C[C@@H](C)O[C@@H](C)C4)n3)nn2C)c(F)c1` [Compound 190, 2-((2R,6S)-2,6-dimethylmorpholino)-N-(5-(2-fluoro-4-methoxyphenyl)-1-methyl-1H-pyrazol-3-yl)pyrimidin-4-amine] are 251 nM and 484 nM.
The corresponding values for `COc1ccc(-c2cc(Nc3ccnc(N4CCN(C)CC4)n3)[nH]n2)c(F)c1` [Compound 148, N-(3-(2-fluoro-4-methoxyphenyl)-1H-pyrazol-5-yl)-2-(4-methylpiperazin-1-yl)pyrimidin-4-amine] are 213 nM and 986 nM.
Taken in the same sequence, the figures for `COc1ccc(-c2cc(Nc3ccnc(N4CCC5(CC4)CC5)n3)[nH]n2)c(F)c1` [Compound 144, N-(3-(2-fluoro-4-methoxyphenyl)-1H-pyrazol-5-yl)-2-(6-azaspiro[2.5]octan-6-yl)pyrimidin-4-amine] were 119 nM and 330 nM.
In the case of `COc1ccc(-c2cc(Nc3ccnc(N4CCC(C)CC4)n3)[nH]n2)cc1F` [Compound 87, N-(3-(3-fluoro-4-methoxyphenyl)-1H-pyrazol-5-yl)-2-(4-methylpiperidin-1-yl)pyrimidin-4-amine], the concentration for half-maximal inhibition (IC50) in assay [1] and in assay [2] was 25 nM each time.
For the molecule `CC1CN(c2nccc(Nc3cc(-c4ccc(OC(F)F)cc4)n[nH]3)n2)C1` [Compound 245, N-(3-(4-(difluoromethoxy)phenyl)-1H-pyrazol-5-yl)-2-(3-methylazetidin-1-yl)pyrimidin-4-amine], the IC50 was 47 nM in assay [1] and not below 10000 nM in assay [2].
The corresponding values for `COc1ccc(-c2cc(Nc3ccnc(N4C[C@@H](C)O[C@@H](C)C4)n3)[nH]n2)cc1` [Compound 59b, 2-((2R,6S)-2,6-dimethylmorpholino)-N-(3-(4-methoxyphenyl)-1H-pyrazol-5-yl)pyrimidin-4-amine] are 17 nM and 3 nM.
Regarding `COc1ccc(-c2cc(Nc3ccnc(N4C[C@@H](C)O[C@@H](C)C4)n3)[nH]n2)cc1F` [Compound 86b, 2-((2R,6S)-2,6-dimethylmorpholino)-N-(3-(3-fluoro-4-methoxyphenyl)-1H-pyrazol-5-yl)pyrimidin-4-amine], the half-maximal inhibitory concentration (IC50) in assay [1] was 7 nM; in assay [2], 5 nM.
The corresponding values for `COc1ccc(-c2cc(Nc3ccnc(N4CCCC4)n3)[nH]n2)c(F)c1` [Compound 151, N-(3-(2-fluoro-4-methoxyphenyl)-1H-pyrazol-5-yl)-2-(pyrrolidin-1-yl)pyrimidin-4-amine] are 18 nM and 52 nM.
Turning to `COc1ccc(-c2cc(Nc3ccnc(N4CC5CC5C4)n3)[nH]n2)c(F)c1` (stereo not shown) [Compound 141, 2-(3-azabicyclo[3.1.0]hexan-3-yl)-N-(3-(2-fluoro-4-methoxyphenyl)-1H-pyrazol-5-yl)pyrimidin-4-amine], the half-inhibitory concentration (IC50) was determined as 41 nM in assay [1] and 163 nM in assay [2].
The corresponding values for `COc1ccc(-c2cc(Nc3ccnc(N4CCOC(C)(C)C4)n3)[nH]n2)cc1F` [Compound 92, 2-(2,2-dimethylmorpholino)-N-(3-(3-fluoro-4-methoxyphenyl)-1H-pyrazol-5-yl)pyrimidin-4-amine] are 245 nM and 488 nM.
Taken in the same sequence, the figures for `FC(F)Oc1ccc(-c2cc(Nc3ccnc(N4CCC4)n3)[nH]n2)cc1` [Compound 244, 2-(azetidin-1-yl)-N-(3-(4-(difluoromethoxy)phenyl)-1H-pyrazol-5-yl)pyrimidin-4-amine] were 46 nM and 1120 nM.
The corresponding values for `C[C@@H]1CN(c2nccc(Nc3cc(-c4ccc5occc5c4)n[nH]3)n2)C[C@H](C)O1` [Compound 205, N-(3-(benzofuran-5-yl)-1H-pyrazol-5-yl)-2-((2R,6S)-2,6-dimethylmorpholino)pyrimidin-4-amine] are 27 nM and 96 nM.
For the molecule `C[C@@H]1CN(c2nccc(Nc3cc(-c4ccc(C#N)cc4)n[nH]3)n2)C[C@H](C)O1` [Compound 191b, 4-(5-((2-((2R,6S)-2,6-dimethylmorpholino)pyrimidin-4-yl)amino)-1H-pyrazol-3-yl)benzonitrile], the results for the IC50 in assay [1] and in assay [2] were 1570 nM and 1520 nM, respectively.
As for `COc1ccc(-c2cc(Nc3ccnc(N4CCC(C)C4)n3)[nH]n2)c(F)c1` (stereo not shown) [Compound 160, N-(3-(2-fluoro-4-methoxyphenyl)-1H-pyrazol-5-yl)-2-(3-methylpyrrolidin-1-yl)pyrimidin-4-amine], the half-inhibitory concentration (IC50) in assay [1] was determined as 39 nM; in assay [2], 147 nM.
On to `FC(F)Oc1ccc(-c2cc(Nc3ccnc(N4CC(F)(F)C4)n3)[nH]n2)cc1` [Compound 249, 2-(3,3-difluoroazetidin-1-yl)-N-(3-(4-(difluoromethoxy)phenyl)-1H-pyrazol-5-yl)pyrimidin-4-amine], for which the half-maximal inhibitory concentration (IC50) in assay [1] is 305 nM; in assay [2] it was not below 10000 nM.
As to `C[C@@H]1COCCN1c1nccc(Nc2cc(-c3ccc(OC(F)F)cc3)n[nH]2)n1` [Compound 264, (R)-N-(3-(4-(difluoromethoxy)phenyl)-1H-pyrazol-5-yl)-2-(3-methylmorpholino)pyrimidin-4-amine], the half-maximal inhibitory concentration (IC50) in assay [1] is 127 nM; in assay [2], 302 nM.
Taken in the same sequence, the figures for `FC(F)Oc1ccc(-c2cc(Nc3ccnc(N4CCCCC4)n3)[nH]n2)cc1` [Compound 243, N-(3-(4-(difluoromethoxy)phenyl)-1H-pyrazol-5-yl)-2-(piperidin-1-yl)pyrimidin-4-amine] were 17 nM and 53 nM.
Taken in the same sequence, the figures for `COc1ccc(-c2cc(Nc3ccnc(N4CCOCC4)n3)[nH]n2)c(Cl)c1` [Compound 27, N-(3-(2-chloro-4-methoxyphenyl)-1H-pyrazol-5-yl)-2-morpholinopyrimidin-4-amine] were 367 nM and 321 nM.
The corresponding values for `C[C@H]1COCCN1c1ncc(F)c(Nc2cc(-c3ccc(OC(F)F)cc3)n[nH]2)n1` [Compound 294, (S)-N-(3-(4-(difluoromethoxy)phenyl)-1H-pyrazol-5-yl)-5-fluoro-2-(3-methylmorpholino)pyrimidin-4-amine] are 636 nM and 1140 nM.
For the molecule `COc1ccc(-c2cc(Nc3ccnc(N4C[C@@H](C)O[C@H](C)C4)n3)[nH]n2)cc1F` [Compound 106, 2-((2R,6R)-2,6-dimethylmorpholino)-N-(3-(3-fluoro-4-methoxyphenyl)-1H-pyrazol-5-yl)pyrimidin-4-amine], the half-maximal inhibitory concentration (IC50) in assay [1] was 62 nM; in assay [2], 91 nM.
The corresponding values for `C[C@@H]1CN(c2nccc(Nc3cc(-c4ccc(Br)cc4)n[nH]3)n2)C[C@H](C)O1` [Compound 208, N-(3-(4-bromophenyl)-1H-pyrazol-5-yl)-2-((2R,6S)-2,6-dimethylmorpholino)pyrimidin-4-amine] are 212 nM and 448 nM.
Take `FC(F)Oc1ccc(-c2cc(Nc3ccnc(N4CCC(F)(F)CC4)n3)[nH]n2)cc1` [Compound 253, N-(3-(4-(difluoromethoxy)phenyl)-1H-pyrazol-5-yl)-2-(4,4-difluoropiperidin-1-yl)pyrimidin-4-amine]: the concentration for half-maximal inhibition (IC50) in assay [1] is 148 nM; in assay [2] it was 1560 nM.
Taken in the same sequence, the figures for `C[C@@H]1CN(c2nccc(Nc3cc(-c4ccc(F)cc4)[nH]n3)n2)C[C@H](C)O1` [Compound 196, 2-((2R,6S)-2,6-dimethylmorpholino)-N-(5-(4-fluorophenyl)-1H-pyrazol-3-yl)pyrimidin-4-amine] were 383 nM and 619 nM.
Taken in the same sequence, the figures for `C[C@H]1COCCN1c1nccc(Nc2cc(-c3ccc(OC(F)F)cc3)n[nH]2)n1` [Compound 263, (S)-N-(3-(4-(difluoromethoxy)phenyl)-1H-pyrazol-5-yl)-2-(3-methylmorpholino)pyrimidin-4-amine] were 30 nM and 79 nM.
Taken in the same sequence, the figures for `COc1cc(F)c(-c2cc(Nc3ccnc(N4C[C@@H](C)O[C@@H](C)C4)n3)[nH]n2)cc1F` [Compound 218, N-(3-(2,5-difluoro-4-methoxyphenyl)-1H-pyrazol-5-yl)-2-((2R,6S)-2,6-dimethylmorpholino)pyrimidin-4-amine] were 13 nM and 20 nM.
